Assay results published in PubChem BioAssay AID1963839 (Molecular Pharmacology Branch, DTP, NCI, 2024).

System: 817829-284-R-J1-PDC complex spheroid viability
Experiment: Anticancer human tumor 817829-284-R-J1-PDC patient-derived colon adenocarcinoma cell line growth inhibition [POLQ]
Settings: for IC50: curve of first compound; for viability, T/C: stronger effect = lower value
In short: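 PDC + HUVEC + MSC complex spheroids; POLQ inhibitors ± partner drugs; top conc. at/near clinical Cmax, else 10 microM (SN-38 1 microM), half-log dilutions; 37 degrees C, 5% CO2.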

[1] = second compound 0.0316 µM, first compound 0.0316 µM
[2] = second compound 0.0316 µM, first compound 0.1 µM
[3] = second compound 0.0316 µM, first compound 0.316 µM
[4] = second compound 0.0316 µM, first compound 1 µM
[5] = second compound 0.0316 µM, first compound 3.16 µM
[6] = second compound 0.0316 µM, first compound 10 µM
[7] = second compound 0.1 µM, first compound 0.0316 µM
[8] = second compound 0.1 µM, first compound 0.1 µM
[9] = second compound 0.1 µM, first compound 0.316 µM
[10] = second compound 0.1 µM, first compound 1 µM
[11] = second compound 0.1 µM, first compound 3.16 µM
[12] = second compound 0.1 µM, first compound 10 µM
[13] = second compound 0.316 µM, first compound 0.0316 µM
[14] = second compound 0.316 µM, first compound 0.1 µM
[15] = second compound 0.316 µM, first compound 0.316 µM
[16] = second compound 0.316 µM, first compound 1 µM
[17] = second compound 0.316 µM, first compound 3.16 µM
[18] = second compound 0.316 µM, first compound 10 µM
[19] = second compound 1 µM, first compound 0.0316 µM
[20] = second compound 1 µM, first compound 0.1 µM
[21] = second compound 1 µM, first compound 0.316 µM
[22] = second compound 1 µM, first compound 1 µM
[23] = second compound 1 µM, first compound 3.16 µM
[24] = second compound 1 µM, first compound 10 µM
[25] = second compound 3.16 µM, first compound 0.0316 µM
[26] = second compound 3.16 µM, first compound 0.1 µM
[27] = second compound 3.16 µM, first compound 0.316 µM
[28] = second compound 3.16 µM, first compound 1 µM
[29] = second compound 3.16 µM, first compound 3.16 µM
[30] = second compound 3.16 µM, first compound 10 µM
[31] = second compound 10 µM, first compound 0.0316 µM
[32] = second compound 10 µM, first compound 0.1 µM
[33] = second compound 10 µM, first compound 0.316 µM
[34] = second compound 10 µM, first compound 1 µM
[35] = second compound 10 µM, first compound 3.16 µM
[36] = second compound 10 µM, first compound 10 µM
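Further: spheroids exposed to compounds for 7 days.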
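Wherever viability, T/C is given: 100% = DMSO vehicle-treated spheroids.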

**Q.** How did the IC50 (second compound 0.0316 µM) turn out when `C#Cc1c(F)ccc2cc(O)cc(-c3ncc4c(N5CC6CCC(C5)N6)nc(OCC56CCCN5CC(F)C6)nc4c3F)c12` (stereo unspecified) + Nc1ccc(C#CCN(C(=O)Cc2ncc(C(F)(F)F)cc2C(F)(F)F)c2ccc(F)cc2)nn1 was run?
**A.** > 10 µM

**Q.** What about the IC50 (second compound 0.1 µM) of the same compound?
**A.** > 10 µM

**Q.** What about the IC50 (second compound 0.316 µM) of the same compound?
**A.** > 10 µM

**Q.** What about the IC50 (second compound 1 µM) of the same compound?
**A.** > 10 µM

**Q.** What about the IC50 (second compound 3.16 µM) of the same compound?
**A.** > 10 µM

**Q.** And the IC50 (second compound 10 µM)?
**A.** > 10 µM

**Q.** And the viability, T/C [1]?
**A.** 78.6%

**Q.** And the viability, T/C [2]?
**A.** 105%

**Q.** And the viability, T/C [3]?
**A.** 104%

**Q.** What about the viability, T/C [4] of the same compound?
**A.** 93.8%

**Q.** What about the viability, T/C [5] of the same compound?
**A.** 114%

**Q.** What about the viability, T/C [6] of the same compound?
**A.** 84.2%

**Q.** What about the viability, T/C [7] of the same compound?
**A.** 92.1%

**Q.** What about the viability, T/C [8] of the same compound?
**A.** 87.9%

**Q.** And the viability, T/C [9]?
**A.** 93%

**Q.** What about the viability, T/C [10] of the same compound?
**A.** 92.4%

**Q.** What about the viability, T/C [11] of the same compound?
**A.** 103%

**Q.** What about the viability, T/C [12] of the same compound?
**A.** 92.7%

**Q.** And the viability, T/C [13]?
**A.** 101%

**Q.** And the viability, T/C [14]?
**A.** 94.5%

**Q.** What about the viability, T/C [15] of the same compound?
**A.** 105%

**Q.** What about the viability, T/C [16] of the same compound?
**A.** 86.8%

**Q.** What about the viability, T/C [17] of the same compound?
**A.** 116%

**Q.** And the viability, T/C [18]?
**A.** 91.8%

**Q.** And the viability, T/C [19]?
**A.** 106%

**Q.** What about the viability, T/C [20] of the same compound?
**A.** 88.4%

**Q.** What about the viability, T/C [21] of the same compound?
**A.** 98.6%

**Q.** And the viability, T/C [22]?
**A.** 91.6%

**Q.** And the viability, T/C [23]?
**A.** 97.9%

**Q.** And the viability, T/C [24]?
**A.** 101%

**Q.** What about the viability, T/C [25] of the same compound?
**A.** 97.5%

**Q.** And the viability, T/C [26]?
**A.** 99.8%

**Q.** And the viability, T/C [27]?
**A.** 101%

**Q.** What about the viability, T/C [28] of the same compound?
**A.** 86.9%

**Q.** And the viability, T/C [29]?
**A.** 93.2%

**Q.** What about the viability, T/C [30] of the same compound?
**A.** 95.7%

**Q.** What about the viability, T/C [31] of the same compound?
**A.** 95.5%

**Q.** And the viability, T/C [32]?
**A.** 102%

**Q.** What about the viability, T/C [33] of the same compound?
**A.** 73.8%

**Q.** And the viability, T/C [34]?
**A.** 102%

**Q.** And the viability, T/C [35]?
**A.** 96.3%

**Q.** And the viability, T/C [36]?
**A.** 80.4%

**Q.** Which IC50 (second compound 0.0316 µM) does the source give for `CC1COCCN1c1cc(C2(O)CC3CCC(C2)O3)c2cnn(-c3ccn[nH]3)c2n1` (stereo unspecified) + Nc1ccc(C#CCN(C(=O)Cc2ncc(C(F)(F)F)cc2C(F)(F)F)c2ccc(F)cc2)nn1 here?
**A.** < 0.0316 µM

**Q.** What about the IC50 (second compound 0.1 µM) of the same compound?
**A.** < 0.0316 µM

**Q.** And the IC50 (second compound 0.316 µM)?
**A.** < 0.0316 µM

**Q.** What about the IC50 (second compound 1 µM) of the same compound?
**A.** < 0.0316 µM

**Q.** And the IC50 (second compound 3.16 µM)?
**A.** < 0.0316 µM

**Q.** What about the IC50 (second compound 10 µM) of the same compound?
**A.** < 0.0316 µM

**Q.** And the viability, T/C [1]?
**A.** 26.3%

**Q.** And the viability, T/C [2]?
**A.** 7.07%

**Q.** And the viability, T/C [3]?
**A.** 4.65%

**Q.** And the viability, T/C [4]?
**A.** 3.5%

**Q.** And the viability, T/C [5]?
**A.** 3.48%

**Q.** And the viability, T/C [6]?
**A.** 3.16%

**Q.** And the viability, T/C [7]?
**A.** 36%

**Q.** And the viability, T/C [8]?
**A.** 9.38%

**Q.** What about the viability, T/C [9] of the same compound?
**A.** 4.42%

**Q.** And the viability, T/C [10]?
**A.** 3.56%

**Q.** What about the viability, T/C [11] of the same compound?
**A.** 2.98%

**Q.** What about the viability, T/C [12] of the same compound?
**A.** 2.77%

**Q.** What about the viability, T/C [13] of the same compound?
**A.** 25.9%

**Q.** What about the viability, T/C [14] of the same compound?
**A.** 10.1%

**Q.** And the viability, T/C [15]?
**A.** 4.5%

**Q.** What about the viability, T/C [16] of the same compound?
**A.** 3.48%

**Q.** And the viability, T/C [17]?
**A.** 3.21%

**Q.** What about the viability, T/C [18] of the same compound?
**A.** 2.42%

**Q.** What about the viability, T/C [19] of the same compound?
**A.** 29.4%

**Q.** And the viability, T/C [20]?
**A.** 10.3%

**Q.** What about the viability, T/C [21] of the same compound?
**A.** 4.41%

**Q.** What about the viability, T/C [22] of the same compound?
**A.** 3.09%

**Q.** And the viability, T/C [23]?
**A.** 2.69%

**Q.** And the viability, T/C [24]?
**A.** 2.28%

**Q.** And the viability, T/C [25]?
**A.** 29.5%

**Q.** What about the viability, T/C [26] of the same compound?
**A.** 7.74%

**Q.** And the viability, T/C [27]?
**A.** 3.99%

**Q.** And the viability, T/C [28]?
**A.** 2.88%

**Q.** And the viability, T/C [29]?
**A.** 2.96%

**Q.** And the viability, T/C [30]?
**A.** 2.33%

**Q.** What about the viability, T/C [31] of the same compound?
**A.** 22%

**Q.** And the viability, T/C [32]?
**A.** 8.66%

**Q.** What about the viability, T/C [33] of the same compound?
**A.** 3.65%

**Q.** And the viability, T/C [34]?
**A.** 3.1%

**Q.** What about the viability, T/C [35] of the same compound?
**A.** 2.74%

**Q.** And the viability, T/C [36]?
**A.** 2.24%

**Q.** Which IC50 (second compound 0.0316 µM) does the source give for `O=C(Nc1ccc(O)c(NS(=O)(=O)c2ccc(F)cc2)c1)c1ccc(-c2ccccc2)cc1` + Nc1ccc(C#CCN(C(=O)Cc2ncc(C(F)(F)F)cc2C(F)(F)F)c2ccc(F)cc2)nn1 here?
**A.** 6.53 µM

**Q.** What about the IC50 (second compound 0.1 µM) of the same compound?
**A.** 7.12 µM

**Q.** And the IC50 (second compound 0.316 µM)?
**A.** 6.8 µM

**Q.** What about the IC50 (second compound 1 µM) of the same compound?
**A.** 7.73 µM

**Q.** And the IC50 (second compound 3.16 µM)?
**A.** 7.08 µM

**Q.** What about the IC50 (second compound 10 µM) of the same compound?
**A.** 6.95 µM

**Q.** And the viability, T/C [1]?
**A.** 109%

**Q.** And the viability, T/C [2]?
**A.** 94.8%

**Q.** And the viability, T/C [3]?
**A.** 107%

**Q.** What about the viability, T/C [4] of the same compound?
**A.** 101%

**Q.** And the viability, T/C [5]?
**A.** 70.2%

**Q.** And the viability, T/C [6]?
**A.** 38.1%

**Q.** What about the viability, T/C [7] of the same compound?
**A.** 103%

**Q.** What about the viability, T/C [8] of the same compound?
**A.** 110%

**Q.** And the viability, T/C [9]?
**A.** 90.6%

**Q.** What about the viability, T/C [10] of the same compound?
**A.** 102%

**Q.** And the viability, T/C [11]?
**A.** 74.7%

**Q.** And the viability, T/C [12]?
**A.** 39.7%

**Q.** And the viability, T/C [13]?
**A.** 113%

**Q.** And the viability, T/C [14]?
**A.** 105%

**Q.** What about the viability, T/C [15] of the same compound?
**A.** 105%

**Q.** What about the viability, T/C [16] of the same compound?
**A.** 107%

**Q.** And the viability, T/C [17]?
**A.** 76.9%

**Q.** What about the viability, T/C [18] of the same compound?
**A.** 36.5%

**Q.** And the viability, T/C [19]?
**A.** 113%

**Q.** And the viability, T/C [20]?
**A.** 102%

**Q.** What about the viability, T/C [21] of the same compound?
**A.** 100%

**Q.** What about the viability, T/C [22] of the same compound?
**A.** 98.2%

**Q.** And the viability, T/C [23]?
**A.** 86.6%

**Q.** What about the viability, T/C [24] of the same compound?
**A.** 39.5%

**Q.** What about the viability, T/C [25] of the same compound?
**A.** 100%

**Q.** And the viability, T/C [26]?
**A.** 98.5%

**Q.** What about the viability, T/C [27] of the same compound?
**A.** 119%

**Q.** What about the viability, T/C [28] of the same compound?
**A.** 96.2%

**Q.** What about the viability, T/C [29] of the same compound?
**A.** 88%

**Q.** What about the viability, T/C [30] of the same compound?
**A.** 34.1%

**Q.** What about the viability, T/C [31] of the same compound?
**A.** 103%

**Q.** What about the viability, T/C [32] of the same compound?
**A.** 88.9%

**Q.** And the viability, T/C [33]?
**A.** 113%

**Q.** What about the viability, T/C [34] of the same compound?
**A.** 97.2%

**Q.** What about the viability, T/C [35] of the same compound?
**A.** 85.3%

**Q.** And the viability, T/C [36]?
**A.** 33.8%
